Measurements reported in US11008572B2, “Methods and compositions for modulating splicing” (SKYHAWK THERAPEUTICS, INC., priority 2017, dated 2021).
Where two headings read alike, the source gives them in different places.

How the values were obtained:
[1] = system: A-673 cells; experiment: Cell viability, crystal violet staining; assay type: cell-based; conditions: Homo sapiens
Summary of the method: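 Readout is absorbance at 570 nm of crystal violet, taken up in 0.1 M sodium citrate in 50% ethanol after staining with 0.5% dye in 25% methanol. Plates held 5×10^3 cells per well, and compounds were added one day after seeding for 72 hours. Data are relative to vehicle, mean±SE.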

[2] = system: FOXM1^A2 mRNA and FOXM1^BC mRNA; experiment: Splicing assay (FOXM1), qPCR of isoform mRNAs; assay type: cell-based; conditions: for IC50: FoxM1 BC mRNA decrease (exon included)
Description: Various cells lines were treated with the SMSMs described herein. RNA was then isolated, cDNA synthesized, qPCR performed and the levels of various mRNA targets of the SMSMs were determined. In some instances, RNA was isolated, cDNA synthesized, qPCR performed and the levels of mRNA isoforms in the various cell samples were determined.
On the day of the experiment, a 96-well plate was seeded with the cell lines of interest. The cells were diluted with full growth media to a concentration of 2.0×10^5 cells/mL and 100 μL of cells were added to each well (20,000 cells per well). The cells were treated with a compound immediately after plating.
The compounds were then added to the cell plate using the HP compound dispenser. In the initial experiment, a top concentration of 10 μM and an 8 point 4-fold dilution scheme was used. The stock compounds were made at a concentration of 5 mM, and the DMSO concentration was set to 0.2%. DMSO was used to normalize all the compound-containing wells and the untreated cells.
The treated cells were incubated at 37° C. in a 5% CO2 incubator for the desired amount of time. Plates were placed in a plastic bag with a wet paper towel to prevent evaporation.
RNA was isolated using the Cells to CT kit (ThermoFisher, AM1728). The cells were washed once with 100 μL cold PBS. 50 μL of lysis buffer was added to each well/tube (49.5 μL lysis buffer+0.5 μL DNase I per well/tube). The lysis reaction was mixed and incubated at room temperature for 5 minutes. 5 μL of stop solution was added directly into each cell lysis reaction and mixed by pipetting up and down 5 times. The plates/tubes were incubated at room temperature for 2 minutes then placed on ice if the cDNA synthesis was to be performed immediately. Otherwise, the plates/tubes were stored at −80° C. cDNA synthesis reactions were then performed. Reverse Transcription (RT) Master mix was prepared according to the table below.
40 μL RT master mix was added to PCR tubes or plate wells. 10 μL of RNA was added to each tube/well. The RT thermal cycler program was then run and tubes or plate wells were incubated at 37° C. for 1 hour, then at 95° C. for 5 minutes to deactivate the enzyme.
The qPCR was performed using a QuantStudio 6 instrument (ThermoFisher) and the following cycling conditions and according to the tables below. All samples and standards were analyzed in triplicate. Cycle 1: 2 minutes at 50° C. Cycle 2: 10 minutes at 95° C. Cycle 3 (repeat 40 times): 15 seconds at 95° C., 1 minute at 60° C.
The determined isoform 2and isoform 1quantities were then be used to determine the isoform 2: […] at the various compound concentrations. The PPIA quantities were used in the normalization to account of cell proliferation effects of the compounds.
The dilution necessary to make the top standard is calculated. A top concentration 200,000,000 copies/μL of the stock plasmid was prepared in TE buffer. A series of 10-fold dilutions, also in TE, were then made. A total of 5 μL of each standard was used in a qPCR well to generate samples containing 109 copies, […], 10^7copies, 10^6 copies, 10^5 copies, 10^4 copies, 10^3 copies, 10^2 copies, 10^1copies, and 0 copies.
An assay to measure the FOXM1^A2 mRNA and FOXM1^BC mRNA, or MADD^WT (isoform 4) mRNA and MADD^Ex16 (isoform 3) mRNA, or MAPTau^4R mRNA and MAPTau^3R mRNA simultaneously in cell wells was performed. The RNA values were measured relative to DMSO control and also included a housekeeping gene, PPIA to ensure data was consistent. The mRNA values were measured after 24 hours of incubation with the SMSM compounds.

[3] = A673, cell viability, read-out: A-673 IC50 (nM) Cell viability
[4] = read-out: Splice IC50 (nM) FoxM1 BC mRNA decrease (exon included)
[5] = read-out: Splice EC50 (nM) FoxM1 A mRNA increase (exon excluded)
[6] = A673, cell viability, read-out: A-673 IC50 (nM), Cell viability
[7] = 24 h, 0.1-1000 nM, 24 hours, read-out: Splice IC50 (nM), FoxM1 BC mRNA decrease (exon included)
[8] = FoxM1 A mRNA increase (exon excluded), 0.1-1000 nM, 24 hours, read-out: Splice EC50 (nM), FoxM1 A mRNA increase (exon excluded)

| Structure (SMILES) | IC50 [1, 3] [nM] | IC50 [2, 4] [nM] | EC50 [2, 5] [nM] | IC50 [1, 6] [nM] | other results |
| --- | --- | --- | --- | --- | --- |
| CC1(C)CC(N(c2ccc(-c3ccc(-c4cn[nH]c4)cc3O)nn2)C2CCC2)CC(C)(C)N1 [compound 130, 2-(6-(cyclobutyl(2,2,6,6-tetramethylpiperidin-4-yl)amino)pyridazin-3-yl)-5-(1H-pyrazol-4-yl)phenol] | > 1000 | > 1000 | > 1000 | – | – |
| CN(c1ccc(-c2ccc(-c3cn[nH]c3)cc2O)nn1)[C@@H]1C[C@H]2CNC[C@H]2C1 [compound 143, 2-(6-(methyl((3R,5s,6S)-octahydrocyclopenta[c]pyrrol-5-yl)amino)pyridazin-3-yl)-5-(1H-pyrazol-4-yl)phenol] | > 1000 | 501 to 1000 | 251 to 500 | – | – |
| CN(c1ccc(-c2ccc(-c3cn[nH]c3)cc2O)nn1)[C@H]1[C@@H]2CC[C@H]1CNC2 [compound 145, 2-(6-(((1R,5S,8r)-3-azabicyclo[3.2.1]octan-8-yl)(methyl)amino)pyridazin-3-yl)-5-(1H-pyrazol-4-yl)phenol] | > 1000 | > 1000 | > 1000 | – | – |
| CN(c1ccc(-c2ccc(-c3cn[nH]c3)cc2O)nc1)C1CC(C)(C)NC(C)(C)C1 [compound 135, 2-(5-(methyl(2,2,6,6-tetramethylpiperidin-4-yl)amino)pyridin-2-yl)-5-(1H-pyrazol-4-yl)phenol] | > 1000 | > 1000 | > 1000 | – | – |
| Cc1ncc(-c2ccc(-c3ccc(O[C@@H]4C[C@H]5CC[C@@H](C4)N5)nn3)c(O)c2)o1 [compound 255, 2-(6-(((1R,3s,5S)-8-azabicyclo[3.2.1]octan-3-yl)oxy)pyridazin-3-yl)-5-(2-methyloxazol-5-yl)phenol] | – | – | – | 501 to 1000 | IC50 [2, 7]: 101 to 250 nM; EC50 [2, 8]: 101 to 250 nM |
| CN(c1ccc(-c2cc3oc(=O)n(C)c3cc2O)nn1)[C@@H]1C[C@H]2CC[C@@H](C1)N2 [compound 164, 6-(6-(((1R,3s,5S)-8-azabicyclo[3.2.1]octan-3-yl)(methyl)amino)pyridazin-3-yl)-5-hydroxy-3-methylbenzo[d]oxazol-2(3H)-one] | 251 to 500 | 10 to 100 | 10 to 100 | – | – |
| COCCN(c1ccc(-c2ccc(-c3cn[nH]c3)cc2O)nn1)C1CC(C)(C)NC(C)(C)C1 [compound 133, 2-(6-((2-methoxyethyl)(2,2,6,6-tetramethylpiperidin-4-yl)amino)pyridazin-3-yl)-5-(1H-pyrazol-4-yl)phenol] | > 1000 | > 1000 | 501 to 1000 | – | – |
| CN(c1ccc(-c2ccc(-c3cn[nH]c3)cc2O)nn1)[C@@H]1C[C@H]2C[C@@H]1CN2 [compound 148, 2-(6-(((1R,4R,5R)-2-azabicyclo[2.2.1]heptan-5-yl)(methyl)amino)pyridazin-3-yl)-5-(1H-pyrazol-4-yl)phenol] | > 1000 | > 1000 | > 1000 | – | – |
| Cc1ccn(-c2ccc(-c3ccc(N(C)[C@@H]4C[C@H]5CC[C@@H](C4)N5)nn3)c(O)c2)n1 [compound 222, 2-(6-(((1R,3s,5S)-8-azabicyclo[3.2.1]octan-3-yl)(methyl)amino)pyridazin-3-yl)-5-(3-methyl-1H-pyrazol-1-yl)phenol] | – | – | – | 10 to 100 | IC50 [2, 7]: 10 to 100 nM; EC50 [2, 8]: < 10 nM |
| Cc1cc(-c2ccc(-c3ccc(O[C@@H]4C[C@H]5CC[C@@H](C4)N5)nn3)c(O)c2)on1 [compound 256, 2-(6-(((1R,3s,5S)-8-azabicyclo[3.2.1]octan-3-yl)oxy)pyridazin-3-yl)-5-(3-methylisoxazol-5-yl)phenol] | – | – | – | > 1000 | IC50 [2, 7]: > 1000 nM; EC50 [2, 8]: > 1000 nM |
| CN(c1ccc(-c2ccc(-c3cn[nH]c3)cc2O)nn1)[C@H]1C[C@H]2CNC[C@H]2C1 [compound 142, 2-(6-(methyl((3R,5r,6S)-octahydrocyclopenta[c]pyrrol-5-yl)amino)pyridazin-3-yl)-5-(1H-pyrazol-4-yl)phenol] | > 1000 | 501 to 1000 | 251 to 500 | – | – |
| CN(c1ccc(-c2ccc(-c3ccn(C)c(=O)c3)cc2O)nn1)[C@@H]1C[C@H]2CCC[C@@H](C1)N2 [compound 283, 4-(4-(6-(((1R,3s,5S)-9-azabicyclo[3.3.1]nonan-3-yl)(methyl)amino)pyridazin-3-yl)-3-hydroxyphenyl)-1-methylpyridin-2(1H)-one] | – | – | – | < 10 | – |
| CN(c1ccc(-c2ccc(-c3cc(F)nc(F)c3)cc2O)nn1)[C@H]1C[C@]2(C)CC[C@](C)(C1)N2 [compound 204, 5-(2,6-difluoropyridin-4-yl)-2-(6-(((1R,3s,5S)-1,5-dimethyl-8-azabicyclo[3.2.1]octan-3-yl)(methyl)amino)pyridazin-3-yl)phenol] | 100 to 500 | – | – | – | – |
| CN(c1ccc(-c2ccc(-c3ccnc(OC(F)F)c3)cc2O)nn1)[C@H]1C[C@]2(C)CC[C@](C)(C1)N2 [compound 185, 5-(2-(difluoromethoxy)pyridin-4-yl)-2-(6-(((1R,3s,5S)-1,5-dimethyl-8-azabicyclo[3.2.1]octan-3-yl)(methyl)amino)pyridazin-3-yl)phenol] | 501 to 1000 | – | – | – | – |
| CN(c1ccc(-c2ccc(-n3ccnc3)cc2O)nn1)[C@@H]1C[C@H]2CCC[C@@H](C1)N2 [compound 272, 2-(6-(((1R,3s,5S)-9-azabicyclo[3.3.1]nonan-3-yl)(methyl)amino)pyridazin-3-yl)-5-(1H-imidazol-1-yl)phenol] | – | – | – | 10 to 100 | – |
| C[C@]12CCC[C@](C)(C[C@@H](Oc3ccc(-c4ccc(-c5cn[nH]c5)cc4O)nn3)C1)N2 [compound 262, 2-(6-(((1R,3s,5S)-1,5-dimethyl-9-azabicyclo[3.3.1]nonan-3-yl)oxy)pyridazin-3-yl)-5-(1H-pyrazol-4-yl)phenol] | – | – | – | 101 to 250 | – |
| CN(C)C(=O)c1cc2cc(-c3ccc(N(C)[C@@H]4C[C@H]5CCC[C@@H](C4)N5)nn3)c(O)cc2o1 [compound 298, 5-(6-(((1R,3s,5S)-9-azabicyclo[3.3.1]nonan-3-yl)(methyl)amino)pyridazin-3-yl)-6-hydroxy-N,N-dimethylbenzofuran-2-carboxamide] | – | – | – | 10 to 100 | – |
| CN(c1ccc(-c2ccc(-c3cc(=O)n(C)cn3)cc2O)nn1)[C@@H]1C[C@H]2CCC[C@@H](C1)N2 [compound 300, 6-(4-(6-(((2R,3s,5S)-9-azabicyclo[3.3.1]nonan-3-yl)(methyl)amino)pyridazin-3-yl)-3-hydroxyphenyl)-3-methylpyrimidin-4(3H)-one] | – | – | – | 10 to 100 | – |
| CN(c1ccc(-c2cc3ccc(OC(F)F)cc3cc2O)nn1)[C@@H]1C[C@H]2CC[C@@H](C1)N2 [compound 166, 3-(6-(((1R,3s,5S)-8-azabicyclo[3.2.1]octan-3-yl)(methyl)amino)pyridazin-3-yl)-7-(difluoromethoxy)naphthalen-2-ol] | 501 to 1000 | – | – | – | – |
| CN(c1ccc(-c2ccc(-c3cc[nH]c(=O)c3)cc2O)nn1)[C@H]1C[C@]2(C)CCC[C@](C)(C1)N2 [compound 306, 4-(4-(6-(((1R,3s,5S)-1,5-dimethyl-9-azabicyclo[3.3.1]nonan-3-yl)(methyl)amino)pyridazin-3-yl)-3-hydroxyphenyl)pyridin-2(1H)-one] | – | – | – | – | IC50 ([1]; A673, cell viability, read-out: A-673 IC50 (nM), cell viability): < 10 nM; IC50 ([1]; A673, read-out: A-673 cell viability (IC50)): < 3 nM |
